The record followed here is ChEMBL document CHEMBL2021786, “The discovery of 2-fluoro-N-(3-fluoro-4-(5-((4-morpholinobutyl)amino)-1,3,4-oxadiazol-2-yl)phenyl)benzamide, a full agonist of the alpha-7 nicotinic acetylcholine receptor showing efficacy in the novel object recognition model of cognition enhancement” (Bioorg Med Chem Lett, 2012).

The subject of data set [1] is MDR1. Nature of the data set: Intrinsic permeability of the compound in MDCK cells expressing MDR1. Type of data set: ADME, cell-based, Canis lupus familiaris. To be noted: dog.
Data set [2] is described as follows: Tmax in Sprague-Dawley rat at 3 mg/kg, po. It counts as ADME, organism-based. The arrangement: dose 3 mg/kg, route oral. To be noted: in vivo.
A short description of data set [3]: Blood clearance in Sprague-Dawley rat at 1 mg/kg, iv. Type of data set: ADME, organism-based. Set-up: dose 1 mg/kg, route intravenous.
The subject of data set [4] is Liver. The experiment in a line: Clearance in rat liver assessed per gram of tissue. Type of data set: ADME, tissue-based. As to conditions: in vivo.
The subject of data set [5] is Liver. The experiment in a line: Clearance in human liver assessed per gram of tissue. It counts as ADME, tissue-based.
Data set [6] can be described thus: Ratio of drug level in brain to blood in CD1 mouse at 5 mg/kg, po after 3 hrs. Type of data set: ADME, organism-based. The arrangement: dose 5 mg/kg, route oral.
Data set [7] concerns Blood. The experiment in a line: Drug level in novel object recognition model of rat blood at 0.1 mg/kg, po. Type of data set: ADME, organism-based. Set-up: dose 0.1 mg/kg, route oral. To be noted: in vivo, read-out: Drug uptake.
A short description of data set [8]: Oral bioavailability in Sprague-Dawley rat at 3 mg/kg. It counts as ADME, organism-based. To be noted: in vivo.
A short description of data set [9]: Half life in Sprague-Dawley rat at 1 mg/kg, iv. The arrangement: dose 1 mg/kg, route intravenous. To be noted: in vivo. Type of data set: ADME, organism-based.
Data set [10] in a line: Ratio of drug level in brain to blood in Lister Hooded rat at 3 mg/kg, po after 3 hrs. Type of data set: ADME, organism-based. Set-up: dose 3 mg/kg, route oral.
Data set [11] can be described thus: Tmax in po dosed rat. Type of data set: ADME, organism-based. To be noted: in vivo.

A value given as a limit tells only on which side of the number the result lay.

`O=C(Nc1ccc(-c2nnc(NCCCCN3CCCCC3)o2)cc1)C1CCCCC1` came in with a Papp in data set [1] of 9.8 ×10⁻⁶ cm/s.

In the case of `O=C(Nc1ccc(-c2nnc(NCCCCN3CCOCC3)o2)c(F)c1)c1ccccc1F`, the Tmax in data set [2] was determined as 1 h. The clearance in data set [3] came out at 54 mL/min/kg. The CLH in data set [4] and in [5] was below 0.5 mL/min/g in each case. In addition, in data set [1], the apparent permeability (Papp) worked out at 73.6 ×10⁻⁶ cm/s. For the same compound, the Kp at 3 h in data set [6] was 0.53. Also, the concentration in [7] was 10.5 nM. The bioavailability in data set [8] stood at 20%.

As to `O=C(Nc1ccc(-c2nnc(NCCCN3CCN4CCC3CC4)o2)cc1)c1ccccc1F`, the Papp in data set [1] was 4.2 ×10⁻⁶ cm/s.

As for `O=C(Nc1ccc(-c2nnc(NCCCCN3CCC(F)CC3)o2)cc1)c1ccccc1F`, the Papp in data set [1] worked out at 70.3 ×10⁻⁶ cm/s.

The compound `O=C(Nc1ccc(-c2nnc(NCCCCN3CCCCC3)o2)cc1)c1ccccc1F` displayed a clearance in [3] of 42 mL/min/kg. Further, the CLH was below 0.5 mL/min/g in data set [4] and 0.5 mL/min/g in data set [5]. The apparent permeability coefficient (Papp) in data set [1] came out at 127 ×10⁻⁶ cm/s. The half-life in data set [9] was 2.7 h. For the same compound, in [10], the Kp at 3 h turned out to be 0.99.

As to `COc1cc(NC(=O)c2ccccc2F)ccc1-c1nnc(NCCCN2CCCCC2)o1`, in data set [11], the Tmax was found to be 3 h.

For the compound `O=C(Nc1ccc(-c2nnc(NCCCCN3CCCCC3)o2)cc1)c1ccccc1`, the Papp in [1] amounted to 33.7 ×10⁻⁶ cm/s.

Turning to `O=C(Nc1ccc(-c2nnc(NCCCCN3CCOCC3)o2)c(F)c1)c1ccccc1`, the Papp in data set [1] was 28.5 ×10⁻⁶ cm/s.

On to `O=C(Nc1ccc(-c2nnc(NCCCCN3CCOCC3)o2)cc1)c1ccccc1F`, for which, in data set [2], the Tmax came out at 1 h. For the same compound, in data set [3], the clearance worked out at 37 mL/min/kg. Besides, the CLH in [4] was 0.8 mL/min/g; in data set [5] it was below 0.5 mL/min/g. The Papp in data set [1] was 75.6 ×10⁻⁶ cm/s. The same compound gave a half-life in data set [9] of 1.6 h. In addition, the Kp at 3 h in data set [6] worked out at 0.62. This compound gave a bioavailability in data set [8] of 22%.

In turn, `COc1cc(NC(=O)c2ccccc2F)ccc1-c1nnc(NCCCCN2CCCCC2)o1` came in with a Papp in data set [1] of 25.1 ×10⁻⁶ cm/s.

`COc1cc(NC(=O)c2ccccc2F)ccc1-c1nnc(NCCCCN2CCOCC2)o1` gave a Papp in data set [1] of 57.3 ×10⁻⁶ cm/s. Compared with the last compound, the Papp is about 2.3-fold higher.

By Papp is commonly meant a coefficient for how fast a substance crosses the barrier. Higher therefore signals ready permeation. By Tmax is commonly meant the time from dosing to the highest level. By clearance is commonly meant the volume of plasma or blood freed of the substance per unit of time. Lower therefore signals a low capacity for elimination. What is called Kp is tissue or fluid exposure divided by exposure in the circulation. A word on the bioavailability: it is dose-corrected exposure relative to a reference, in per cent. High values mean much systemic uptake, low ones little systemic uptake. One may read the half-life as the time needed for the level to fall by half in the phase considered. Lower therefore signals rapid decline.
